Test results as given in patent US3954776A, “1-[Methylated piperidino(and pyrrolidin-1-yl)]-3-(substituted phenoxy)-2propanols” (Yoshitomi Pharmeceutical Industries, Ltd., priority 1973, dated 1976).
In brackets after ≈: the same amount, converted by molar mass. Counter-ions that a name gives are not always drawn.

Tests used:
[1] = tested on: isolated guinea pig atria; experiment: Antiarrhythmic action on functional refractory period; type: cell-based; conditions: method of Zetler et al; for EC50: Cavia porcellus
Description: 1. Antiarrhythmic action on functional refractory period
The test was performed essentially by the method described by G. Zetler et al in "Naunyn-Schmiedebergs Archiv fur Pharmakologie", vol. 271, 335-345 (1971), using isolated guinea pig atria.

guinea pig [2] = experiment: Surface anaesthetic action; type: in vivo; conditions: relative to procaine = 1; guinea pig (male, about 400 g); method of Chance et al
Description: 3. Surface anaesthetic action
The test was performed essentially by the method described by M.R.A. Chance et al in "Journal of Pharmacology and Experimental Therapeutics", vol. 82, 203-210 (1944), using guinea pig (male, about 400 g).

guinea pig [3] = experiment: Infiltration anaesthetic action; type: in vivo; conditions: relative to procaine = 1; guinea pig (male, about 400 g); method of Bulbring et al
Description: 2. Infiltration anaesthetic action
The test was performed essentially by the method described by E. Bulbring et al in "Journal of Pharmacology and Experimental Therapeutics", vol. 85, 78-84 (1945), using guinea pig (male, about 400 g).

| Structure (SMILES) | EC50 [1] [µg/mL] | Efficiency Rate (procaine = 1), surface anaesthetic action (guinea pig [2]) | Efficiency Rate (procaine = 1), infiltration anaesthetic action (guinea pig [3]) | EC50 (antiarrhythmic action on functional refractory period) [1] |
| --- | --- | --- | --- | --- |
| CC1(C)CCCC(C)(C)N1CC(O)COc1ccccc1OCC1CCCO1 (centres unmarked) [B] | 17 (≈ 43.4 µM) | 26.7 |  |  |
| CSCCOc1ccccc1OCC(O)CN1C(C)(C)CCCC1(C)C (centres unmarked) [D] | 15 (≈ 39.3 µM) | 27.2 |  |  |
| CC1(C)CCCC(C)(C)N1CC(O)COc1ccccc1Oc1ccccn1 (centres unmarked) [F] | 12 (≈ 31.2 µM) |  |  |  |
| CC1CCCCN1CC(O)COc1ccccc1Cc1cccs1 (centres unmarked) [K] |  |  | 167.5 |  |
| Cc1ccccc1OCC(O)CN1C(C)(C)CCC1(C)C (centres unmarked) [Lotucaine, 1-(2,2,5,5-tetramethylpyrrolidin-1-yl)-3-(o-tolyloxy)-2-propanolhydrochloride, reference compound] |  | 11.1 | 11.3 | no effect |
| CC1CCCCN1CC(O)COc1ccc(Cc2cccs2)cc1 (centres unmarked) [L] |  | 23.9 |  |  |
| CC1(C)CCCC(C)(C)N1CC(O)COc1ccccc1OCc1ccco1 (centres unmarked) [H] |  |  | 51.7 |  |
| CC1(C)CCC(C)(C)N1CC(O)COc1ccccc1OCc1ccco1 (centres unmarked) [C] | 13 (≈ 34.8 µM) | 30.0 |  |  |
| CC1CCCC(C)N1CC(O)COc1ccccc1Cc1cccs1 (centres unmarked) [I] |  | 27.1 | 98.7 |  |
| COCCOc1ccccc1OCC(O)CN1C(C)(C)CCCC1(C)C (centres unmarked) [A] | 24 (≈ 65.7 µM) |  |  |  |
| CC1CCCC(C)N1CC(O)COc1ccccc1OCc1cccs1 (centres unmarked) [G] | 18 (≈ 47.9 µM) | 23.6 |  |  |
| CC1(C)CCCC(C)(C)N1CC(O)COc1ccccc1Cc1ccccn1 (centres unmarked) [E] | 22 (≈ 57.5 µM) |  |  |  |
| CC1(C)CCCC(C)(C)N1CC(O)COc1ccccc1Cc1cccs1 (centres unmarked) [J] |  |  | 35.6 |  |
